Measured values reported in patent US12167995B2, “[((1R,2S,5R)-2-isopropyl-5-methyl-cyclohexanecarbonyl)-amino]-acetic acid isopropyl ester for treatment of chronic cough” (AXALBION SA, priority 2019, dated 2024).
Entries after “also recorded” stand apart in the source; their conditions may differ.

Assays:
[1] = test system: isolated guinea pig vagal nerves; test: Capsaicin-induced depolarization on isolated guinea pig vagal nerves (grease-gap recording)
Experimental: The vagal nerve is the main afferent pathway of the cough reflex loop. Therefore, the ability—and dependence on TRPM8—of AX-8 to inhibit the capsaicin-induced depolarization on isolated guinea pig vagal nerves was assessed. The tissue was assayed using an O2/CO2 gassed, grease-gap recording system as previously described (see, e.g., Birrell et al., 2009). Briefly, after the tissue has stabilised, it was exposed to a challenge (capsaicin, 1 μM, TRPV1 agonist for 2 minutes), then washed. This was then repeated to confirm the basal response. After washing, the tissue was incubated with vehicle or AX-8 (10 nM-1 mM) for 10 minutes. Following this, the tissue was re-challenged with capsaicin (in the presence of vehicle or AX-8).
Where the TRPM8 antagonist PF-05105679 (PF, 10 μM) was used, following the two reproducible responses to capsaicin, the nerve was incubated with the TRPM8 antagonist or vehicle (0.1% DMSO) for 10 minutes, prior to incubation with AX-8 or vehicle for 10 minutes. The nerve was then restimulated with capsaicin in the presence of PF/Vehicle and AX-8/Vehicle and the percentage of inhibition of the original response calculated. Following a wash period, the nerve was then restimulated with capsaicin to determine viability. The level of depolarization was recorded at each phase. The data were recorded as actual depolarisation levels and as a percentage inhibition (caused by the vehicle or test compound) of the mean of the initial, control recordings.

[2] = Clinical Trial 2: safety and tolerability in RCC patients; type: in vivo, human; conditions: single 5 mg ODT
Excerpt: Safety assessments consisted of monitoring and recording protocol-defined adverse events (AEs) and serious adverse events (SAEs); vital signs; physical examinations; clinical laboratory assessments; electrocardiograms (ECGs); and other protocol-specified tests that were deemed critical to the safety evaluation of the study drug.

Structure (SMILES): CC(C)OC(=O)CNC(=O)[C@@H]1C[C@H](C)CC[C@H]1C(C)C [AX-8, [((1R,2S,5R)-2-isopropyl-5-methyl-cyclohexanecarbonyl)-amino]-acetic acid isopropyl ester]
- inhibition of the capsaicin-induced response in the presence of TRPM8 antagonist PF-05105679 ([1]; AX-8 1 μM, PF-05105679 10 μM pre-incubated 10 min, n=4): suppressed by pre-application of the TRPM8 antagonist PF-05105679; also recorded: blocked by the selective TRPM8 inhibitor PF-05105679
- inhibition of the capsaicin-induced response (maximum) ([1]; capsaicin 1 μM, AX-8 10 nM-1 mM, 10 min incubation, n=3): up to 80%
- inhibition of the capsaicin-induced response versus concentration ([1]; capsaicin 1 μM, n=3): blocked in a dose-dependent manner
- compound-related adverse effects [2]: No compound-related adverse effects were observed
